Experimental data as given in ChEMBL document CHEMBL4118132, “Novel 5-methyl-2-phenylphenanthridium derivatives as FtsZ-targeting antibacterial agents from structural simplification of natural product sanguinarine” (2018).
Active and inactive are the calls of the source. The calls are words filed in the database; no cut-off is given here.

Key:
Staphylococcus aureus [1] = assay: Bactericidal activity against penicillin-susceptible Staphylococcus aureus ATCC 25923 assessed as bacterial levels at 32 ug/ml after 4 hrs by time-kill assay (reference value: 6.13 to 6.71 log10CFU/ml); type: functional
Staphylococcus aureus [2] = assay: Bactericidal activity against penicillin-susceptible Staphylococcus aureus ATCC 25923 assessed as bacterial levels at 32 ug/ml after 1 hr by time-kill assay (reference value: 6.13 to 6.14 log10CFU/ml); type: functional
Staphylococcus aureus [3] = assay: Bactericidal activity against penicillin-susceptible Staphylococcus aureus ATCC 25923 assessed as bacterial levels at 8 ug/ml after 4 hrs by time-kill assay (reference value: 6.13 to 6.71 log10CFU/ml); type: functional
Bacillus subtilis [4] = assay: Antibacterial activity against penicillin-susceptible Bacillus subtilis ATCC 9372 after 24 hrs by broth microdilution method; type: functional; settings: ATCC 9372, 24 h
Staphylococcus aureus [5] = assay: Bactericidal activity against penicillin-susceptible Staphylococcus aureus ATCC 25923 assessed as bacterial levels at 32 ug/ml after 24 hrs by time-kill assay (reference value: 6.13 to 8.34 log10CFU/ml); type: functional
[6] = system: Staphylococcus epidermidis; assay: Antibacterial activity against penicillin-resistant Staphylococcus epidermidis clinical isolate after 24 hrs by broth microdilution method; type: functional
Staphylococcus aureus [7] = assay: Potency index, ratio of ciprofloxacin MIC to test compound MIC for penicillin-resistant Staphylococcus aureus clinical isolate; type: functional
Staphylococcus aureus [8] = assay: Bactericidal activity against penicillin-susceptible Staphylococcus aureus ATCC 25923 assessed as bacterial levels at 16 ug/ml after 1 hr by time-kill assay (reference value: 6.13 to 6.14 log10CFU/ml); type: functional
Staphylococcus aureus [9] = assay: Bactericidal activity against penicillin-susceptible Staphylococcus aureus ATCC 25923 assessed as bacterial levels at 16 ug/ml after 2 hrs by time-kill assay (reference value: 6.13 to 6.17 log10CFU/ml); type: functional
Staphylococcus aureus [10] = assay: Antibacterial activity against penicillin-resistant Staphylococcus aureus clinical isolate after 24 hrs by broth microdilution method; type: functional
[11] = molecular target: T1, Cell division protein FtsZ (Staphylococcus aureus) (UniProt P0A031); assay: Inhibition of FtsZ in penicillin-susceptible Staphylococcus aureus ATCC 25923 assessed as increase in length of bacteria at 0.125 ug/ml after 5 hrs by phase-contrast light microscopic method
T1 sequence (whole entry): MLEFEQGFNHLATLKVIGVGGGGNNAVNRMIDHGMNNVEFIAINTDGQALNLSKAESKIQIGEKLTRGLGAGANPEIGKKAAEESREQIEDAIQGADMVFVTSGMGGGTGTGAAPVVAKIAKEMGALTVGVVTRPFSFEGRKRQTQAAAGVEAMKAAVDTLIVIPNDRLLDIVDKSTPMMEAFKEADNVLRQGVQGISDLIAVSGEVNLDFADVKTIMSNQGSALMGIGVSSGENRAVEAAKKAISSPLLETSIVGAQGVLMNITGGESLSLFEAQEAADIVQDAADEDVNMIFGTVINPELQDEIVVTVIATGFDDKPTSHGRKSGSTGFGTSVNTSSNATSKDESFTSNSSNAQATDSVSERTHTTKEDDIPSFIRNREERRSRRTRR

Pseudomonas aeruginosa = assay: Antibacterial activity against penicillin-susceptible Pseudomonas aeruginosa ATCC 27853 after 24 hrs by broth microdilution method; type: functional; settings: ATCC 27853, 24 h
Bacillus subtilis [12] = assay: Potency index, ratio of ciprofloxacin MIC to test compound MIC for penicillin-susceptible Bacillus subtilis ATCC 9372; type: functional
Bacillus subtilis [13] = assay: Potency index, ratio of oxacillin sodium MIC to test compound MIC for penicillin-susceptible Bacillus subtilis ATCC 9372; type: functional
Staphylococcus aureus [14] = assay: Bactericidal activity against penicillin-susceptible Staphylococcus aureus ATCC 25923 assessed as bacterial levels at 8 ug/ml after 2 hrs by time-kill assay (reference value: 6.13 to 6.17 log10CFU/ml); type: functional
[15] = molecular target: T2, Cell division protein FtsZ (Bacillus subtilis) (UniProt A5Z1V5); assay: Inhibition of FtsZ in penicillin-susceptible Bacillus subtilis ATCC 9372 assessed as increase in length of bacteria at 0.125 ug/ml after 5 hrs by phase-contrast light microscopic method
T2 sequence (whole entry): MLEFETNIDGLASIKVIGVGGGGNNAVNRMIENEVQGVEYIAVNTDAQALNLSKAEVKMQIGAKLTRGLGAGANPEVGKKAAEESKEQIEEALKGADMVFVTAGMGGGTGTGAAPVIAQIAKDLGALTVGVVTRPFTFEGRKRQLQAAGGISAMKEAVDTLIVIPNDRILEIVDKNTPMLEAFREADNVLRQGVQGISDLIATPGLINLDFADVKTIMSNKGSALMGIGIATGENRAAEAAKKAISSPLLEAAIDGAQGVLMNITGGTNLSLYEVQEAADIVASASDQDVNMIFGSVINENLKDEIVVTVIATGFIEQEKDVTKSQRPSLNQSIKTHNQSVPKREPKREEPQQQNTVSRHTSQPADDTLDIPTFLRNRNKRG

Staphylococcus aureus [16] = assay: Bactericidal activity against penicillin-susceptible Staphylococcus aureus ATCC 25923 assessed as bacterial levels at 32 ug/ml after 6 hrs by time-kill assay (reference value: 6.13 to 7.54 log10CFU/ml); type: functional
Streptococcus pyogenes = assay: Potency index, ratio of ciprofloxacin MIC to test compound MIC for penicillin-susceptible Streptococcus pyogenes; type: functional
Staphylococcus aureus [17] = assay: Bactericidal activity against penicillin-susceptible Staphylococcus aureus ATCC 25923 assessed as bacterial levels at 32 ug/ml after 2 hrs by time-kill assay (reference value: 6.13 to 6.17 log10CFU/ml); type: functional
Staphylococcus aureus [18] = assay: Bactericidal activity against penicillin-susceptible Staphylococcus aureus ATCC 25923 assessed as bacterial levels at 8 ug/ml after 6 hrs by time-kill assay (reference value: 6.13 to 7.54 log10CFU/ml); type: functional
Staphylococcus aureus [19] = assay: Bactericidal activity against penicillin-susceptible Staphylococcus aureus ATCC 25923 assessed as bacterial levels at 16 ug/ml after 6 hrs by time-kill assay (reference value: 6.13 to 7.54 log10CFU/ml); type: functional
[20] = system: Staphylococcus epidermidis; assay: Potency index, ratio of oxacillin sodium MIC to test compound MIC for penicillin-resistant Staphylococcus epidermidis clinical isolate; type: functional
[21] = system: Staphylococcus epidermidis; assay: Potency index, ratio of ciprofloxacin MIC to test compound MIC for penicillin-resistant Staphylococcus epidermidis clinical isolate; type: functional
Staphylococcus aureus [22] = assay: Bactericidal activity against penicillin-susceptible Staphylococcus aureus ATCC 25923 assessed as bacterial levels at 16 ug/ml after 4 hrs by time-kill assay (reference value: 6.13 to 6.71 log10CFU/ml); type: functional
Escherichia coli = assay: Antibacterial activity against penicillin-susceptible Escherichia coli ATCC 25922 after 24 hrs by broth microdilution method; type: functional; settings: ATCC 25922, 24 h
Staphylococcus aureus [23] = assay: Potency index, ratio of oxacillin sodium MIC to test compound MIC for penicillin-resistant Staphylococcus aureus clinical isolate; type: functional
Bacillus pumilus [24] = assay: Potency index, ratio of oxacillin sodium MIC to test compound MIC for penicillin-susceptible penicillin-susceptible Bacillus pumilus ATCC 63202; type: functional
Bacillus pumilus [25] = assay: Potency index, ratio of ciprofloxacin MIC to test compound MIC for penicillin-susceptible penicillin-susceptible Bacillus pumilus ATCC 63202; type: functional

For `Cc1cc(-c2ccc(C(F)(F)F)cc2)cc2c3ccccc3c[n+](C)c12.[Cl-]`, the Activity (Staphylococcus aureus [1]) was 4 log10CFU/ml, the Activity (Staphylococcus aureus [2]) was 5.57 log10CFU/ml and the Activity (Staphylococcus aureus [3]) was 6.04 log10CFU/ml. The MIC (Bacillus subtilis [4]) was 0.06 µg/mL, the Activity (Staphylococcus aureus [5]) was 0 log10CFU/ml and the MIC [6] was 0.125 µg/mL. The Ratio (Staphylococcus aureus [7]) was 64, the Activity (Staphylococcus aureus [8]) was 5.89 log10CFU/ml and the Activity (Staphylococcus aureus [9]) was 6 log10CFU/ml. The MIC (Staphylococcus aureus [10]) was 0.25 µg/mL, the inhibition [11] was “Active” and the MIC (Pseudomonas aeruginosa) was over 64 µg/mL. The Ratio (Bacillus subtilis [12]) was 33, the Ratio (Bacillus subtilis [13]) was 67 and the Activity (Staphylococcus aureus [14]) was 6.06 log10CFU/ml. For the same compound, the inhibition [15] was “Active”, the Activity (Staphylococcus aureus [16]) was 0 log10CFU/ml and the Ratio (Streptococcus pyogenes) was 8. The Activity (Staphylococcus aureus [17]) was 5.18 log10CFU/ml, the Activity (Staphylococcus aureus [18]) was 6.07 log10CFU/ml and the Activity (Staphylococcus aureus [19]) was 5.42 log10CFU/ml. For the same compound, the Ratio [20] was 512, the Ratio [21] was 512 and the Activity (Staphylococcus aureus [22]) was 5.75 log10CFU/ml. The MIC (Escherichia coli) was over 64 µg/mL, the Ratio (Staphylococcus aureus [23]) was 256 and the Ratio (Bacillus pumilus [24]) was 533. For the same compound, the Ratio (Bacillus pumilus [25]) was 133.
